Read-outs that look alike come from different tables or passages of the source.
Assays:
[1] = tested on: Shank3 complete knockout mice; assay: Grooming Test in Shank3 complete knockout mice; type: in vivo, mouse; details: for acute effect on grooming: single IP dose, 20 min postdose, Day 1
Procedure: Animals. The breeding conditions and genotyping methods for Sapap3 and Shank3 complete knockout mice were the same as described in Welch et al. (Nature 2007, 448(7156):894-900) and in Wang et al. (Nat. Commun. 2016, 7:11459), respectively. Homozygous knockout mice and littermate wild type mice of both genders were used at 4 to 8 weeks of age.
Compound formulation. The test compounds were dissolved in a small volume of dimethyl sulfoxide (DMSO) and diluted in an aqueous solution of 2-hydroxypropyl-beta-cyclodextrin (HP-β-CD) and administered IP. Dosing volume was 10 mL/kg. At 20 minutes after dosing, the mice were subjected to the behavioral test as described below.
Testing room and apparatus. The test room was maintained under the same conditions as the colony rooms, except the mice were housed in conventional shoe-box cages with food, water, and nesting materials. Animals were housed in the test room 48-72 hours prior to testing, in order to permit the mice to fully acclimate to the test room and conventional housing cages before testing. Tests were conducted in white polyvinyl-fluoride hard-sided foam test arenas (20×20×12 cm). The arenas were indirectly illuminated by dimmable LED light bars placed level with the arena floor and 30 cm away from the external wall of the test arena. This permitted the internal area of the arena to be evenly illuminated at approximately 40 lux. The illumination levels where the mice were housed before testing were about 80-100 lux.
Testing procedure. Mice were carefully placed into the test arenas 20 minutes after compound administration. Animals were given free exploration of the arena for 10 minutes, after which they were gently sprayed with 4 quick pumps of a water mist (total water volume approximated 1.5-1.7 mL). Mice were then allowed an additional 10 minutes to self-groom and engage in other behaviors before being removed from the arena. All tests were videotaped using cameras mounted above the testing arena and were saved to digital media format using Noldus Media Player software (Noldus Information Technologies, Leesburg, Va.). The mice were only tested once in the acute studies and were repeatedly tested in the sustained effect studies.
Quantitation of grooming bouts. Analyses of the video recordings were conducted with TopScan behavioral recognition software (Cleversys Inc, Reston, Va.). Configurations were made which scored time spent in grooming. […] These settings permitted automated scoring of grooming by TopScan that corresponded well to manual-scoring of these behaviors by a trained blinded observer using Noldus Observer XT9 (Noldus Information Technologies), with an average corrected kappa of 0.925 (range 0.807-0.983).
Statistical analyses. Data are presented as means and standard error of the means (SEMs). Analyses were conducted using SPSS 23 (IBM SPSS Statistics, Chicago, Ill.). Time spent in grooming behavior (seconds) over the 10-minute pre- and post-spray time blocks were analyzed with repeated measures analyses of variance (RMANOVA). The pre- and post-spray times were used for the within subject effects and the genotype and compound treatment condition were used as the between subject effects. In sustained effect studies, days were also used for a within subject effect. […]
The amount of time mice spent grooming in a novel environment was quantified in Shank3 complete knockout mice (Wang et al. Nat. Commun. 2016, 7:11459) and their wild type littermates for 10 minutes. […]

[2] = tested on: wild type mice (male C57Bl/6); assay: Novelty Phobia Test in wild type mice; type: in vivo, mouse; details: for change in vivo at 0.3 mg/kg / change in vivo at 1 mg/kg / change in vivo at 30 mg/kg / change in vivo at 3 mg/kg / change in vivo at 10 mg/kg: Mus musculus, ip, IP, read-out: Percent Change in Novel Object Number of Nose Touches relative to vehicle control; for pattern of the dose-response function for bouts of nose touching: mouse, in vivo
Procedure: Animals. Male C57Bl/6 mice (18-30 g body weight; 6-8 weeks of age) were obtained from Slaccas (Shanghai, China) and allowed to acclimate to the animal facility for 7 days. Mice were group housed in plastic cages (no more than 4 animals per cage) on wood shavings with nesting material. All animals had free access to food (M01-F, Slaccas) and water. The animal facility was maintained under artificial lighting between 7:00 AM and 7:00 PM in a controlled ambient temperature of 22-24° C. and relative humidity between 50-60%.
Compound formulation. The test compounds were prepared in a vehicle of DMSO and HP-β-CD, and administered IP or PO. The test compounds or vehicle were administered at various times (10-20 minutes) before the behavioral test described below. Dosing volume was 10 mL/kg.
Testing procedure. The behavioral testing apparatus was a rectangular black Plexiglas, 2-chambered box, with no top or bottom (50 cm long, 26 cm wide and 15 cm tall) and allowed for the simultaneous testing of 2 mice. The box was placed on a laboratory bench. The chambers of the testing box were cleaned and fresh paper chip bedding was added between tests. Mice were brought to the experiment room in their home cages on the day of testing. Behavioral tests were conducted between 10:00 AM and 1:00 PM in dim light. After drug administration, a mouse was placed into a test chamber and allowed to explore for 10 minutes. After this habituation period, a novel object (e.g., a toy ball of 3 cm in diameter with spikes) was introduced to the center of the chamber for 5 minutes. For the entire 15-minute test period, video was recorded for offline analysis with Any-maze Video Tracking software (Stoelting Co., Wood Dale, Ill.). The total distance traveled during the entire 15 minutes and the number of bouts that each mouse touched the novel object during the last 5 minutes were measured.
Statistical analyses. Data are presented as means and SEMs. Data were analyzed using one-way analysis of variance (ANOVA; Prism, GraphPad Software Inc., San Diego, Calif.), followed by the post-hoc Dunnett's test to compare test compound-treated groups with the vehicle control. A p value<0.05 was considered significant.

[3] = single dose 3 mg/kg IP on Day 1

Row | Compound | acute effect on grooming [1] | significantly reduced grooming through Day ([1]; single dose 1 mg/kg IP on Day 1) [days] | significantly reduced grooming through Day [1, 3] [days] | change in vivo at 0.3 mg/kg ([2]; 0.25 h, pre-test time 15 min) [%] | change in vivo at 1 mg/kg ([2]; 0.25 h, pre-test time 15 min) [%] | change in vivo at 30 mg/kg ([2]; 0.25 h, pre-test time 15 min) [%] | change in vivo at 0.3 mg/kg ([2]; 20 min, pre-test time 20 min) [%] | change in vivo at 1 mg/kg ([2]; 20 min, pre-test time 20 min) [%] | change in vivo at 3 mg/kg ([2]; 20 min, pre-test time 20 min) [%] | pattern of the dose-response function for bouts of nose touching [2] | change in vivo at 10 mg/kg ([2]; 20 min, pre-test time 20 min) [%] | change in vivo at 30 mg/kg ([2]; 20 min, pre-test time 20 min) [%] | change in vivo at 0.3 mg/kg ([2]; 10 min, pre-test time 10 min) [%] | change in vivo at 10 mg/kg ([2]; 10 min, pre-test time 10 min) [%]
1 | FC(F)c1ccc(C(F)(F)CN2CCC(Nc3ncnc4[nH]ccc34)CC2)cc1 [C-179^A′] | significantly reduced grooming | 33 | 33 | -12 | 64.7 | 28 | 51.7 | 139 | 164 | inverted U-shaped dose-response function | – | – | – | –
2 | Cc1ccc(COC(=O)N2CC[C@H](CNc3ncccn3)C(F)(F)C2)cc1 [E1-22.2^B′] | significantly reduced grooming | – | 33 | – | – | – | – | – | 163 | – | 115 | 98.9 | – | –
3 | Cc1ccc(COC(=O)N2CC[C@H](CNc3cnc(C)cn3)C(F)(F)C2)cc1 [E1-21.26^B′] | – | – | – | – | – | – | – | – | 141 | dose-dependent increases | 149 | 171 | – | –
4 | Cc1ccc(COC(=O)N2CC[C@H](CNc3nccn4cnnc34)C(F)(F)C2)cc1 [E1-1.2^B′] | – | – | – | – | – | – | – | – | – | dose-dependent increases | – | – | 16.1 | 218

From patent publication US11752155B2, “Treatment of autism spectrum disorders, obsessive-compulsive disorder and anxiety disorders” (Rugen Holdings (Cayman) Limited, priority 2016, dated 2023)
